According to patent US9181236B2, “2-spiro-substituted iminothiazines and their mono-and dioxides as bace inhibitors, compositions and their use” (Merck Sharp & Dohme Corp., priority 2011, dated 2015):

Biological target: soluble human BACE1 catalytic domain (Homo sapiens (Human), UniProt P56817)
Assay: BACE1 HTRF FRET Assay
Assay type: biochemical
Settings: for Ki: Ki calculated from IC50 using the Cheng-Prusoff equation; for inhibition at 10 µM: read-out: BACE1 % Inh. at 10 μM
From the text: A homogeneous time-resolved FRET assay can be used to determine IC50 values for inhibitors of the soluble human BACE1 catalytic domain. This assay monitors the increase of 620 nm fluorescence that resulted from BACE1 cleavage of an APPswedish APP^swe mutant peptide FRET substrate (QSY7-[…]-Europium-amide). This substrate contains an N-terminal QSY7 moiety that serves as a quencher of the C-terminal Europium fluorophore (620 nm Em). In the absence of enzyme activity, 620 nm fluorescence is low in the assay and increased linearly over 3 hours in the presence of uninhibited BACE1 enzyme Inhibition of BACE1 cleavage of the QSY7-APP^swe-Eu substrate by inhibitors is manifested as a suppression of 620 nm fluorescence.
Reactions are initiated by addition of 10 μl of 600 nM QSY7-APP^swe-Eu substrate (200 nM final) to give a final reaction volume of 30 μl in a 384 well Nunc HTRF plate. The reactions are incubated at 30° C. for 1.5 hours. The 620 nm fluorescence is then read on a Rubystar HTRF plate reader (BMG Labtechnologies) using a 50 millisecond delay followed by a 400 millisecond acquisition time window Inhibitor IC50 values are derived from non-linear regression analysis of concentration response curves.

soluble human BACE1 catalytic domain, sequence (P56817 75-416): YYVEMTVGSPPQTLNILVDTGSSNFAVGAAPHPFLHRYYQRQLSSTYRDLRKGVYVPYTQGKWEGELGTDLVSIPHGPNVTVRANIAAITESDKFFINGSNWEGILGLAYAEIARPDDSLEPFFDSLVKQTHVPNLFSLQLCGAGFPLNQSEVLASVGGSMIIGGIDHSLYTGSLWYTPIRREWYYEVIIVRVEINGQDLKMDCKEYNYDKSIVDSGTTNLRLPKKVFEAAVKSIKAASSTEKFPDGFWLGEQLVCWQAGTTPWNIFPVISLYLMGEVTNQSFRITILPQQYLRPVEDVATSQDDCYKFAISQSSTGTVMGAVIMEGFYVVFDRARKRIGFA

| Structure (SMILES) | Ki [nM] | inhibition at 10 µM [%] |
| --- | --- | --- |
| C[C@@]1(c2cc(NC(=O)c3ncc(Cl)cc3Cl)ccc2F)CS(=O)(=O)C2(CCCC2)C(=N)N1 [Example 18] | 2.7 |  |
| C[C@@]1(c2cc(NC(=O)c3ncc(Cl)cc3Cl)ccc2F)CS(=O)(=O)C2(CCOCC2)C(=N)N1 [Example 31] | 4.1 |  |
| C[C@@]1(c2cc(NC(=O)c3ncc(Cl)cc3F)ccc2F)CS(=O)(=O)C2(CCOCC2)C(=N)N1 [Example 35a] | 6.5 |  |
| C[C@@]1(c2cc(-c3cccc(C#N)c3)ccc2F)CS(=O)(=O)C2(CCCC2)C(=N)N1 [Example 36] | 1290 |  |
| C[C@@]1(c2cc(-c3cncc(Cl)c3)ccc2F)CS(=O)(=O)C2(CCCC2)C(=N)N1 [Example 37] | 459 |  |
| C[C@@]1(c2cc(-c3cncc(C#N)c3)ccc2F)CS(=O)(=O)C2(CCCC2)C(=N)N1 [Example 38] | 939 |  |
| COc1cccc2cc(-c3ccc(F)c([C@]4(C)CS(=O)(=O)C5(CCCC5)C(=N)N4)c3)n(C(=O)OC(C)(C)C)c12 [Example 39] | 1330 |  |
| C[C@@]1(c2cc(-n3cc(-c4ccccc4)nn3)ccc2F)CS(=O)(=O)C2(CCC2)C(=N)N1 [Example 39a] | 2320 |  |
| C[C@@]1(c2cc(-n3cc(-c4cccnc4)nn3)ccc2F)CS(=O)(=O)C2(CCC2)C(=N)N1 [Example 39b] | 8560 |  |
| C[C@@]1(c2sc(-c3cncnc3)cc2Cl)CS(=O)(=O)C2(CCCC2)C(=N)N1 [Example 43] | 73.1 |  |
| C[C@@]1(c2sc(-c3cccc(-c4nnco4)c3)cc2Cl)CS(=O)(=O)C2(CCCC2)C(=N)N1 [Example 43a] | 37 |  |
| C[C@@]1(c2sc(-c3cncnc3)cc2Cl)CS(=O)(=O)C2(CCCCC2)C(=N)N1 [Example 47] | 545 |  |
| C[C@@]1(c2sc(-c3cncnc3)cc2Cl)CS(=O)(=O)C2(CCOCC2)C(=N)N1 [Example 51] | 688 |  |
| COc1cncc(-c2cc(Cl)c([C@]3(C)CS(=O)(=O)C4(CCOCC4)C(=N)N3)s2)c1 [Example 53] | 555 |  |
| C[C@@]1(c2sc(-c3cncc(F)c3)cc2Cl)CS(=O)(=O)C2(CCOCC2)C(=N)N1 [Example 55] | 260 |  |
| C[C@@]1(c2sc(-c3cccc(N4CCCC4)c3)cc2Cl)CS(=O)(=O)C2(CCOCC2)C(=N)N1 [Example 56] | 5740 |  |
| C[C@@]1(c2sc(-c3cccc(-c4nnco4)c3)cc2Cl)CS(=O)(=O)C2(CCOCC2)C(=N)N1 [Example 57a] | 34.9 |  |
| C[C@@]1(c2sc(-c3cncnc3)cc2Cl)CS(=O)(=O)C2(CCC2)C(=N)N1 [Example 60] | 374 |  |
| C[C@@]1(c2sc(C(=O)NCc3cnoc3)cc2Cl)CS(=O)(=O)C2(CCCCC2)C(=N)N1 [Example 80] | 249 |  |
| C[C@@]1(c2cc(NC(=O)C3CC3)ccc2F)CS(=O)(=O)[C@]2(CCOC2)C(=N)N1 [Example 81] | 5170 |  |

Further lines, results first:

| Ki [nM] | inhibition at 10 µM [%] | Structure (SMILES) |
| --- | --- | --- |
| 1660 |  | C[C@@]1(c2sc(-c3cncc(N4CCOCC4)c3)cc2Cl)CS(=O)(=O)[C@]2(CCOC2)C(=N)N1 [Example 62i] |
| 2420 |  | CC(C)(O)c1cncc(-c2cc(Cl)c([C@]3(C)CS(=O)(=O)[C@]4(CCOC4)C(=N)N3)s2)c1 [Example 62m] |
| 1780 |  | CCc1cncc(-c2cc(Cl)c([C@]3(C)CS(=O)(=O)[C@@]4(CCOC4)C(=N)N3)s2)c1 [Example 63i] |
| 3690 |  | C[C@@]1(c2sc(-c3cncc(N4CCOCC4)c3)cc2Cl)CS(=O)(=O)[C@@]2(CCOC2)C(=N)N1 [Example 63j] |
| 849 |  | C[C@@]1(c2sc(-c3ccnc(-c4ccccc4)c3)cc2Cl)CS(=O)(=O)[C@@]2(CCOC2)C(=N)N1 [Example 63k] |
| 674 |  | C[C@@]1(c2sc(-c3ccnc(-c4ccoc4)c3)cc2Cl)CS(=O)(=O)[C@@]2(CCOC2)C(=N)N1 [Example 63l] |
| 986 |  | C[C@@]1(c2sc(-c3ccnc(-c4cccs4)c3)cc2Cl)CS(=O)(=O)[C@@]2(CCOC2)C(=N)N1 [Example 63m] |
| 105 |  | C[C@@]1(c2sc(C#CCCNS(C)(=O)=O)cc2Cl)CS(=O)(=O)C2(CCC2)C(=N)N1 [Example 77c] |
| 2360 |  | C[C@@]1(c2sc(C#CCN3CCOCC3)cc2Cl)CS(=O)(=O)C2(CCC2)C(=N)N1 [Example 77d] |
| 144 |  | C[C@@]1(c2sc(C(=O)NCc3cnsn3)cc2Cl)CS(=O)(=O)C2(CCCCC2)C(=N)N1 [Example 80a] |
| 41 |  | C[C@@]1(c2sc(C(=O)NCc3cnn4ccccc34)cc2Cl)CS(=O)(=O)C2(CCCCC2)C(=N)N1 [Example 80b] |
| 4150 |  | C[C@@]1(c2sc(C(=O)NCc3ccncn3)cc2Cl)CS(=O)(=O)C2(CCCCC2)C(=N)N1 [Example 80c] |
| 5120 |  | C[C@@]1(c2sc(C(=O)NCc3cccc(F)c3)cc2Cl)CS(=O)(=O)C2(CCCCC2)C(=N)N1 [Example 80d] |
| 588 |  | C[C@@]1(c2sc(C(=O)NCc3ccc(F)cc3)cc2Cl)CS(=O)(=O)C2(CCCCC2)C(=N)N1 [Example 80e] |
| 851 |  | C[C@@]1(c2sc(C(=O)NCc3ccc(C#N)cc3)cc2Cl)CS(=O)(=O)C2(CCCCC2)C(=N)N1 [Example 80f] |
| 2160 |  | Cc1cncc(NC(=O)c2cc(Cl)c([C@]3(C)CS(=O)(=O)C4(CCCCC4)C(=N)N3)s2)c1 [Example 80g] |

| Ki [nM] | inhibition at 10 µM [%] | Structure (SMILES) |
| --- | --- | --- |
|  | 32 | Cc1ncc(NC(=O)c2cc(Cl)c([C@]3(C)CS(=O)(=O)C4(CCCCC4)C(=N)N3)s2)cn1 [Example 80h] |
| 6050 |  | Cc1cc2cccc(NC(=O)c3cc(Cl)c([C@]4(C)CS(=O)(=O)C5(CCCCC5)C(=N)N4)s3)c2o1 [Example 80i] |
| 2010 |  | Cn1ccc(NC(=O)c2cc(Cl)c([C@]3(C)CS(=O)(=O)C4(CCCCC4)C(=N)N3)s2)n1 [Example 80j] |
| 121 |  | C[C@@]1(c2sc(C(=O)NCc3ccsn3)cc2Cl)CS(=O)(=O)C2(CCCCC2)C(=N)N1 [Example 80k] |
| 207 |  | COc1cccc(NC(=O)c2cc(Cl)c([C@]3(C)CS(=O)(=O)C4(CCCCC4)C(=N)N3)s2)n1 [Example 80l] |
| 717 |  | CCc1cccc(NC(=O)c2cc(Cl)c([C@]3(C)CS(=O)(=O)C4(CCCCC4)C(=N)N3)s2)n1 [Example 80m] |
| 4150 |  | CCOCC(=O)Nc1ccc(F)c([C@]2(C)CS(=O)(=O)[C@]3(CCOC3)C(=N)N2)c1 [Example 81a] |
| 304 |  | C[C@@]1(c2cc(NC(=O)c3ccc(OC(F)(F)F)cn3)ccc2F)CS(=O)(=O)[C@]2(CCOC2)C(=N)N1 [Example 81aa] |
| 146 |  | C[C@@]1(c2cc(NC(=O)c3ncccc3C(F)(F)F)ccc2F)CS(=O)(=O)[C@]2(CCOC2)C(=N)N1 [Example 81ab] |
|  | 35 | CC(C)C(F)(F)c1ccc(C(=O)Nc2ccc(F)c([C@]3(C)CS(=O)(=O)[C@]4(CCOC4)C(=N)N3)c2)nc1 [Example 81ac] |
| 313 |  | CC(F)(F)C(=O)Nc1ccc(F)c([C@]2(C)CS(=O)(=O)[C@]3(CCOC3)C(=N)N2)c1 [Example 81ad] |
| 904 |  | COc1ccc(C(=O)Nc2ccc(F)c([C@]3(C)CS(=O)(=O)[C@]4(CCOC4)C(=N)N3)c2)nn1 [Example 81ae] |
| 1330 |  | Cc1cc(C(=O)Nc2ccc(F)c([C@]3(C)CS(=O)(=O)[C@]4(CCOC4)C(=N)N3)c2)no1 [Example 81af] |
| 5.7 |  | C[C@@]1(c2cc(NC(=O)c3ncc(Cl)cc3C#N)ccc2F)CS(=O)(=O)[C@]2(CCOC2)C(=N)N1 [Example 81ag] |
| 300 |  | C[C@@]1(c2cc(NC(=O)c3ccno3)ccc2F)CS(=O)(=O)[C@]2(CCOC2)C(=N)N1 [Example 81b] |
| 180 |  | C[C@@]1(c2cc(NC(=O)c3cocn3)ccc2F)CS(=O)(=O)[C@]2(CCOC2)C(=N)N1 [Example 81c] |
